The values that follow come from patent US12030875B2, “EIF4E inhibitors and uses thereof” (PIC Therapeutics, Inc., priority 2018, dated 2024).

SMILES strings stand for the structures.

The target in the test is T1, Human eIF4E (Homo sapiens, UniProt P06730).
T1 construct: Human eIF4E (aa 28-217) with a C-terminal His-tag; made in house
T1 sequence (P06730 28-217): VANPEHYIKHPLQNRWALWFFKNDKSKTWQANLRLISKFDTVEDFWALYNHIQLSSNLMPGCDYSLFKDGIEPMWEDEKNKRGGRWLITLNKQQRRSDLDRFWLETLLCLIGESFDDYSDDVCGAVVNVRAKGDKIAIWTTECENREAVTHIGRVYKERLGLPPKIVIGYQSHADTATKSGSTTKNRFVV
Briefly: Human eIF4E/4G2 binding assay (TR-FRET). To be noted: eIF4E (aa 28-217) with biotin labeled 4G2 peptide. The procedure:
Human eIF4E (aa 28-217) with a C-terminal His-tag was expressed in E. coli in inclusion bodies. The protein was solubilized with 8 M urea and purified under denaturing conditions using nickel-charged HisTrap HP columns (GE Healthcare). The purified protein was then refolded by diluting in 20 mM Hepes pH 7.0, 0.5 M NaCl, 1 mM DTT, 1 mM EDTA, 0.5 M arginine plus 6 M urea, and then dialyzing overnight into the same buffer without the urea. The protein was further dialyzed into 20 mM Hepes, pH 6.5, 50 mM NaCl, 1 mM EDTA, 1 mM DTT, and concentrated using Hitrap SP sepharose FF columns (GE Healthcare). The concentrated protein was dialyzed into 20 mM Hepes, pH 7.0, 0.5M NaCl, 5 mM DTT and 10% glycerol, and stored at −80° C. until use.
Test compounds (3.43 mM stock in DMSO) were diluted 2-fold in series in DMSO (10 concentration points). Compound solutions (1.2 μl/well) were added into black 384-well polypropylene microplates (Matrix, Thermal Scientific). Twenty-two microliters per well of Assay Buffer (50 mM NaPi, pH 6.5, 50 mM KCl, 1 mM DTT and 0.5 mg/ml gamma globulin) and eight microliters per well of 82.5 nM purified eIF4E in Assay Buffer were added. The samples were incubated at room temperature (20-23° C.) for 15 min. Biotin labeled 4G2 peptide (Ac-Lys-Gln-Tyr-Asp-Arg-Glu-Phe-Leu-Leu-Asp-Phe-Gln-Phe-Met-Pro-Lys(Aha-Bio)-NH2, 1.75 μM stock in DMSO) was diluted to 0.14 μM in Assay Buffer (without DTT) and 5 μl/well was added. The samples were incubated at room temperature for 15 min. Five microliters per well of 6.4 nM Eu-streptavidin (Eu-SA, Perkin Elmer) and 80 nM Allophycocyanin (APC)-anti His antibody (Columbia Biosciences) in Assay Buffer (without DTT) were then added and the samples were incubated at room temperature for 20 min.
Assay signals were monitored by reading excitation at 340 nm and emission fluorescence at 615 nm and 665 nm on an Envision reader (Perkin Elmer). Normalized TR-FRET (time-resolved fluorescence resonance energy transfer) assay signal (Rn) was calculated by the formula: Rn═[(A−Ba−C×D)/(D−Bd)]×(Dc−Bd) • Where A is the fluorescence intensity of the sample at 665 nm, • D is the fluorescence intensity of the sample at 615 nm, • Ba and Bd are plate backgrounds at 665 nm and 615 nm, respectively, • Dc is the fluorescence intensity of 0.78 nM Eu-SA in the assay buffer at 615 nm • The cross-talk factor (C) is determined by the following formula: C=(Ac−Ba)/(Dc−Bd) • Where Ac is the fluorescence intensity of 0.78 nM Eu-SA in the assay buffer at 665 nm.
IC50 values were calculated using xLFit program (IDBS).
For orientation: Time-resolved FRET reads energy transfer from a long-lived donor to a nearby acceptor.
For orientation: IC50 means the concentration at which inhibition is half-maximal. Consider `CC(C)C(CC(=O)O)Nc1nc(-c2ccccc2)c(-c2ccc(-c3cnco3)cc2)s1` (stereo not shown) [Compound I-1], for which the IC50 is > 25 µM.
As to `CC(C)C(CC(=O)O)Nc1nc(-c2cncnc2)c(-c2ccc(-c3cnco3)cc2)s1` (stereo not shown) [Compound I-2], the IC50 is > 25 µM.
Turning to `CC(C)C(CC(=O)O)Nc1nc(-c2cccnc2)c(-c2ccc(-c3cnco3)cc2)s1` (stereo not shown) [Compound I-3], the IC50 is > 25 µM.
Then `CC(C)C(CC(=O)O)Nc1nc(-c2ccc(-c3cnco3)cc2)c(-c2cccc3[nH]ccc23)s1` (stereo not shown) [Compound I-4], with > 25 µM; and `CC(C)(CNc1nc(-c2ccc(-c3cnco3)cc2)c(-c2ccccc2)s1)C(=O)O` [Compound I-5], with > 25 µM.
The figure for `CC(C)(CNc1nc(-c2ccc(-c3cnco3)cc2)c(-c2cncnc2)s1)C(=O)O` [Compound I-6] is > 25 µM.
For `CC(C)(CNc1nc(-c2ccc(-c3cnco3)cc2)c(-c2cccnc2)s1)C(=O)O` [Compound I-7], the IC50 is > 25 µM.
In the case of `CC(C)(CNc1nc(-c2ccc(-c3cnco3)cc2)c(-c2cccc3[nH]ccc23)s1)C(=O)O` [Compound I-8], the IC50 was > 25 µM.
In the case of `O=C(O)C1CN(c2nc(-c3ccc(-c4cnco4)cc3)c(-c3ccccc3)s2)C1` [Compound I-9], the IC50 is > 25 µM.
For `O=C(O)C1CN(c2nc(-c3ccc(-c4cnco4)cc3)c(-c3cncnc3)s2)C1` [Compound I-10], the IC50 was > 25 µM.
Consider `O=C(O)C1CN(c2nc(-c3ccc(-c4cnco4)cc3)c(-c3cccnc3)s2)C1` [Compound I-11], for which the IC50 is > 25 µM.
Turning to `O=C(O)C1CN(c2nc(-c3ccc(-c4cnco4)cc3)c(-c3cccc4[nH]ccc34)s2)C1` [Compound I-12], the half-inhibitory concentration (IC50) is > 25 µM.
Take `CC1(C(=O)O)CN(c2nc(-c3ccc(-c4cnco4)cc3)c(-c3ccccc3)s2)C1` [Compound I-13]: the IC50 was > 25 µM.
Take `CC1(C(=O)O)CN(c2nc(-c3ccc(-c4cnco4)cc3)c(-c3cncnc3)s2)C1` [Compound I-14]: the IC50 was > 25 µM.
Turning to `CC1(C(=O)O)CN(c2nc(-c3ccc(-c4cnco4)cc3)c(-c3cccnc3)s2)C1` [Compound I-15], the IC50 was > 25 µM.
As for `CC1(C(=O)O)CN(c2nc(-c3ccc(-c4cnco4)cc3)c(-c3cccc4[nH]ccc34)s2)C1` [Compound I-16], the IC50 was > 25 µM.
Regarding `CCCC(CNc1nc(-c2ccc(-c3cnco3)cc2)cs1)C(=O)O` (stereo not shown) [Compound I-17], the IC50 was > 25 µM.
As to `CCCC(CNc1nc(-c2ccc(-c3cnco3)cc2)c(-c2ccccc2)s1)C(=O)O` (stereo not shown) [Compound I-18], the IC50 lay within 5 to 25 µM.
For `CCCC(CNc1nc(-c2cncnc2)c(-c2ccc(-c3cnco3)cc2)s1)C(=O)O` (stereo not shown) [Compound I-19], the IC50 is > 25 µM.
With `CCCC(CNc1nc(-c2cccnc2)c(-c2ccc(-c3cnco3)cc2)s1)C(=O)O` (stereo not shown) [Compound I-20], the IC50 is > 25 µM.
With `CCCC(CNc1nc(-c2ccc(-c3cnco3)cc2)c(-c2cccc3[nH]ccc23)s1)C(=O)O` (stereo not shown) [Compound I-21], the IC50 was > 25 µM.
For the compound `CC(CC(=O)O)Nc1nc(-c2ccc(-c3cnco3)cc2)c(-c2ccccc2)s1` (stereo not shown) [Compound I-22], the 50% inhibitory concentration (IC50) was > 25 µM.
Then `CC(CC(=O)O)Nc1nc(-c2ccc(-c3cnco3)cc2)c(-c2cncnc2)s1` (stereo not shown) [Compound I-23], with > 25 µM; and `CC(CC(=O)O)Nc1nc(-c2ccc(-c3cnco3)cc2)c(-c2cccnc2)s1` (stereo not shown) [Compound I-24], with > 25 µM; and `CC(CC(=O)O)Nc1nc(-c2ccc(-c3cnco3)cc2)c(-c2cccc3[nH]ccc23)s1` (stereo not shown) [Compound I-25], with > 25 µM.
The figure for `CC(CNc1nc(-c2ccc(-c3cnco3)cc2)cs1)C(=O)O` (stereo not shown) [Compound I-26] is > 25 µM; for `CC(CNc1nc(-c2ccc(-c3cnco3)cc2)c(-c2ccccc2)s1)C(=O)O` (stereo not shown) [Compound I-27] it is > 25 µM.
`CC(CNc1nc(-c2ccc(-c3cnco3)cc2)c(-c2cncnc2)s1)C(=O)O` (stereo not shown) [Compound I-28]: the IC50 was > 25 µM.
